Source: ChEMBL document CHEMBL3425490, “Activity of lipo-cyclic γ-AApeptides against biofilms of Staphylococcus epidermidis and Pseudomonas aeruginosa” (Bioorg Med Chem Lett, 2015)
Converted amounts (≈) assume the structure as drawn. The source made the active and inactive calls. No cut-off for these calls is given here.

How the values were obtained:
[1] = Hemolytic activity in human RBC after 1 hr; assay type: ADME, cell-based, Erythrocyte; details: red blood cells (RBC)
Pseudomonas aeruginosa [2] = experiment: Antibacterial activity against Pseudomonas aeruginosa ATCC 27853 after 18 hrs by broth microdilution method; assay type: functional; details: ATCC 27853, 18 h
Pseudomonas aeruginosa [3] = experiment: Inhibition of biofilm formation of Pseudomonas aeruginosa ATCC 27853 after 24 hrs by crystal violet staining-based assay; assay type: functional
[4] = test system: Staphylococcus epidermidis; experiment: Antibacterial activity against methicillin-resistant Staphylococcus epidermidis ATCC 35984 after 18 hrs by broth microdilution method; assay type: functional; details: RP62A
[5] = test system: Staphylococcus epidermidis; experiment: Induction of pre-existing methicillin-resistant Staphylococcus epidermidis ATCC 35984 biofilm detachment after 24 hrs by crystal violet staining-based assay relative to control; assay type: functional, RP62A; parameters: concentration or dose not given beside the values
[6] = test system: Staphylococcus epidermidis; experiment: Inhibition of biofilm formation of methicillin-resistant Staphylococcus epidermidis ATCC 35984 after 24 hrs by crystal violet staining-based assay relative to control; assay type: functional, RP62A
Pseudomonas aeruginosa [7] = experiment: Induction of pre-existing Pseudomonas aeruginosa ATCC 27853 biofilm detachment after 24 hrs by crystal violet staining-based assay relative to control; assay type: functional; parameters: concentration or dose not given beside the values
Pseudomonas aeruginosa [8] = experiment: Bactericidal activity against Pseudomonas aeruginosa ATCC 27853 assessed as decrease in log10CFU/ml at 12.5 to 50 ug/ml incubated for 6 hrs followed by plating measured after 24 hrs relative to control; assay type: functional
[9] = test system: Staphylococcus epidermidis; experiment: Bactericidal activity against methicillin-resistant Staphylococcus epidermidis ATCC 35984 assessed as decrease in log10CFU/ml at 12.5 to 50 ug/ml incubated for 6 hrs followed by plating measured after 24 hrs relative to control; assay type: functional; details: for Activity: RP62A
Pseudomonas aeruginosa [10] = experiment: microbe, parasite or virus in culture; details: 5761
Description: Antibacterial activity against Pseudomonas aeruginosa 5761 by macrobroth dilution method

Pseudomonas aeruginosa [11] = experiment: microbe, parasite or virus in culture; details: 8545
Description: Antibacterial activity against Pseudomonas aeruginosa 8545 by macrobroth dilution method

[12] = test system: Staphylococcus epidermidis; experiment: microbe, parasite or virus in culture; details: RP62A
Description: Antibacterial activity against oxacillin-susceptible Staphylococcus epidermidis ATCC 35984

[13] = test system: Staphylococcus epidermidis; experiment: microbe, parasite or virus in culture; details: RP62A; remark: listed apart in the source
Description: Antibacterial activity against oxacillin-resistant Staphylococcus epidermidis ATCC 35984

Pseudomonas aeruginosa [14] = experiment: microbe, parasite or virus in culture; details: 11683
Description: Antibacterial activity against Pseudomonas aeruginosa 11683 by macrobroth dilution method

Pseudomonas aeruginosa [15] = experiment: Inhibition of biofilm formation of Pseudomonas aeruginosa ATCC 27853 at 6.25 to 12.56 after 24 hrs by crystal violet staining-based assay relative to control; assay type: functional
[16] = test system: Staphylococcus epidermidis; experiment: Inhibition of biofilm formation of methicillin-resistant Staphylococcus epidermidis ATCC 35984 at 6.25 to 12.56 after 24 hrs by crystal violet staining-based assay relative to control; assay type: functional, RP62A

Structure (SMILES) | HC50 at 1 h [1] [µM] | MIC (Pseudomonas aeruginosa [2]) [µM] | inhibition (INH) (Pseudomonas aeruginosa [3]) [%] | MIC [4] [µM] | Activity [5] [%] | inhibition (INH) [6] [%] | Activity (Pseudomonas aeruginosa [7]) [%] | Activity (Pseudomonas aeruginosa [8]) | Activity [9] | MIC (Pseudomonas aeruginosa [10]) [µg/mL] | MIC (Pseudomonas aeruginosa [11]) [µg/mL] | MIC [12] [µg/mL] | inhibition (Pseudomonas aeruginosa [3]) | MIC [13] [µg/mL] | inhibition ([6]; RP62A) | MIC (Pseudomonas aeruginosa [14]) [µg/mL] | inhibition (INH) (Pseudomonas aeruginosa [15]) [%] | deltalog10CFU (Pseudomonas aeruginosa [8]) | deltalog10CFU [9] | inhibition (INH) [16] [%]
CCCCCCCCCCCCCCCC(=O)N(CC(N)=O)C[C@H](CCCCN)NC(=O)CN1C[C@H](Cc2ccccc2)NC(=O)CN(C(=O)CCc2ccccc2)C[C@H](CCCCN)NC(=O)CN(C(=O)CCc2ccccc2)C[C@H](CCCCN)NC(=O)CN(C(=O)CCc2ccccc2)C[C@H](CCCCN)NC(=O)CCC1=O | 160 | 12 (≈ 19.3 µg/mL) | 60 | 1 (≈ 1.61 µg/mL) | 10 | 40 | 60 |  |  |  |  |  |  |  |  |  |  |  |  | 
CCCCCCCCCCCCCCCC(=O)N(CC(N)=O)C[C@H](CCCCN)NC(=O)CN1C[C@H](Cc2ccccc2)NC(=O)CN(C(=O)CCc2ccccc2)C[C@H](CCCCN)NC(=O)CN(C(=O)CCc2ccccc2)C[C@H](CCCCN)NC(=O)CN(C(=O)CCc2ccccc2)C[C@H](CCCCN)NC(=O)CN(C(=O)CCc2ccccc2)C[C@H](CCCCN)NC(=O)CCC1=O | 130 | 13 (≈ 24.9 µg/mL) | 60 | 13 (≈ 24.9 µg/mL) | 10 | 40 | 50 | Active | Active |  |  |  |  |  |  |  |  |  |  | 
CCCCCCCCCCCCCCCC(=O)N(CC(N)=O)C[C@H](CCCCN)NC(=O)CN1C[C@H](Cc2ccccc2)NC(=O)CN(C(=O)CCc2ccccc2)C[C@H](CCCCN)NC(=O)CN(C(=O)CCCN)C[C@H](Cc2ccccc2)NC(=O)CN(C(=O)CCCN)C[C@H](Cc2ccccc2)NC(=O)CN(C(=O)CCc2ccccc2)C[C@H](CCCCN)NC(=O)CCC1=O | 82 | 14 (≈ 26 µg/mL) | 60 | 3 (≈ 5.57 µg/mL) | 10 | 40 | 50 |  |  |  |  |  |  |  |  |  |  |  |  | 
CCCCCCCCCCCCCCCC(=O)N(CC(N)=O)C[C@H](CCCCN)NC(=O)CN1C[C@H](Cc2ccccc2)NC(=O)CN(C(=O)CCCN)C[C@H](Cc2ccccc2)NC(=O)CN(C(=O)CCCN)C[C@H](Cc2ccccc2)NC(=O)CN(C(=O)CCc2ccccc2)C[C@H](CCCCN)NC(=O)CCC1=O | 129 | 6 (≈ 9.32 µg/mL) |  | 0.6 (≈ 0.932 µg/mL) |  |  |  |  |  |  |  |  |  |  |  |  |  |  |  | 
O=C(O)c1cn(C2CC2)c2cc(N3CCNCC3)c(F)cc2c1=O [CIPROFLOXACIN] |  |  |  |  | 30 |  | 50 | Active | Active | 0.09 (≈ 0.272 µM) | 0.09 (≈ 0.272 µM) | 0.12 (≈ 0.362 µM) | Active | 0.12 (≈ 0.362 µM) | Active | 0.09 (≈ 0.272 µM) |  |  |  | 
CCCCCCCCCCCCCCCC(=O)N(CC(N)=O)C[C@H](CCCCN)NC(=O)CN1C[C@H](Cc2ccccc2)NC(=O)CN(C(=O)CCCN)C[C@H](Cc2ccccc2)NC(=O)CN(C(=O)CCCN)C[C@H](Cc2ccccc2)NC(=O)CN(C(=O)CCCN)C[C@H](Cc2ccccc2)NC(=O)CCC1=O | 65 | 3 (≈ 4.58 µg/mL) |  | 0.6 (≈ 0.915 µg/mL) | 30 |  | 50 |  |  |  |  |  |  |  |  |  | 80 | 6 | 8 | 70
CCCCCCCCCCCCCCCC(=O)N(CC(N)=O)C[C@H](CCCCN)NC(=O)CN1C[C@H](Cc2ccccc2)NC(=O)CN(C(=O)CCc2ccccc2)C[C@H](CCCCN)NC(=O)CN(C(=O)CCCN)C[C@H](Cc2ccccc2)NC(=O)CN(C(=O)CCc2ccccc2)C[C@H](CCCCN)NC(=O)CCC1=O | 114 | 6 (≈ 9.49 µg/mL) | 60 | 3 (≈ 4.74 µg/mL) | 10 | 40 | 50 | Active | Active |  |  |  |  |  |  |  |  |  |  | 
